Results taken from patent publication US20060167006A1, “Method of treatment” (priority 2003, published 2006).

Key:
Mia-PaCa-2 cells = assay: Growth factor-induced proliferation (MTT), Mia-PaCa-2; assay type: cell-based, human; conditions: Mia-PaCa-2, growth factor alone (absence of Compound I), 72 hours, MTT
Protocol: (§1) Cell culture and MTT assay: Human pancreatic cancer cell lines are routinely grown in DMEM (Colo-357 and Mia-PaCa-2) or RPMI (Aspc-1, BxPc-3, Capan-1, and T3M4) supplemented with 10% FBS, 100 U/ml penicillin, and 100 μg/ml streptomycin (complete medium). To assess cell proliferation, the MTT test is employed. […] After 48 or 72 hours of incubation, 3-(4,5-methylthiazol-2-yl)-2,5-diphenyl-tetrazolium bromide (MTT) is added (50 μg/well) for 4 hours. Formazan products are solubilized with acidic isopropanol, and the optical density is measured at 570 nm. […] All experiments are performed in triplicate.
(§2) EGF-induced proliferation of both Mia-PaCa-2 and T3M4 cell lines in a dose-dependent manner is seen with maximal effects of +72% ±7.5% (Mia-PaCa-2) and +52% ±23% (T3M4). […] FGF-2 markedly stimulates cell growth in Mia-PaCa-2 cell lines with maximal effects of +79% ±6%, and only slightly stimulated T3M4 cell lines, with maximal effects of +7% ±4%. […] Both cell lines are less sensitive to IGF-1 stimulation compared with EGF and FGF-2, with maximal effects of +24% ±2% in Mia-PaCa-2 and +17% ±4% in. T3M4.

T3M4 cells = assay: Growth factor-induced proliferation (MTT), T3M4; assay type: cell-based, human; conditions: T3M4, growth factor alone (absence of Compound I), 72 hours, MTT
Protocol: as §1, §2

Substance	Maximal effect of growth factor on cell growth (Mia-PaCa-2 cells)	Maximal effect of growth factor on cell growth (T3M4 cells)
IGF-1: human recombinant IGF-1 from R&D Systems	+24% ±2	+17% ±4
FGF-2: human recombinant FGF-2 from R&D Systems	+79% ±6	+7% ±4
